6 compounds from ChEMBL document CHEMBL5465560, “Selectivity Literature for EUbOPEN Chemogenomic Library” (2024) can be followed below.

For assay [1], the target named is MAP kinase-activated protein kinase 2 (Homo sapiens, UniProt P49137). To be noted: at 10 µM.
For assay [2], the target named is T1, Tyrosine-protein kinase ITK/TSK (Homo sapiens) (UniProt Q08881).
T1 sequence (whole entry): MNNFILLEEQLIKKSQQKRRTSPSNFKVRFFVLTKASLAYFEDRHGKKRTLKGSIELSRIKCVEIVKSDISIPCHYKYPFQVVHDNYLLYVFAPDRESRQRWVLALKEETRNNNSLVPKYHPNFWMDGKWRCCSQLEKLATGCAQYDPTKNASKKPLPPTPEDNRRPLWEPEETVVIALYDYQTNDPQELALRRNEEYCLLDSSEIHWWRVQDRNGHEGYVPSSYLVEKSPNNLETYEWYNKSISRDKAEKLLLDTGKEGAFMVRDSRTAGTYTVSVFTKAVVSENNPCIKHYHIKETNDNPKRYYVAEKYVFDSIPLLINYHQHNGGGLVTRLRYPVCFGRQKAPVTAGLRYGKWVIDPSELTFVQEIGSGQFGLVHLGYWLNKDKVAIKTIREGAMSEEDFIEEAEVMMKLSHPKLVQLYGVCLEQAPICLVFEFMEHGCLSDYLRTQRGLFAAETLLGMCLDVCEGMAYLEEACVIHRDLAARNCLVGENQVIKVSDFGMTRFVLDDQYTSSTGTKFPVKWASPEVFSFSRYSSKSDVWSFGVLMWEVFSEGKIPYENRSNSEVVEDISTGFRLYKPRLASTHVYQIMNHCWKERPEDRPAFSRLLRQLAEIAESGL
To be noted: at 10 µM.

Assay [3] concerns the target Tyrosine-protein kinase Fyn (Homo sapiens) (UniProt P06241). In words: Selectivity interaction (ActivX KiNativ screen (kinase selectivity in THP-1 cell lysates)) EUB0000639a FYN. Type of assay: subcellular. To be noted: lysate.
The target of assay [4] is T2, Serine/threonine-protein kinase greatwall (Homo sapiens) (UniProt Q96GX5).
T2 sequence (whole entry): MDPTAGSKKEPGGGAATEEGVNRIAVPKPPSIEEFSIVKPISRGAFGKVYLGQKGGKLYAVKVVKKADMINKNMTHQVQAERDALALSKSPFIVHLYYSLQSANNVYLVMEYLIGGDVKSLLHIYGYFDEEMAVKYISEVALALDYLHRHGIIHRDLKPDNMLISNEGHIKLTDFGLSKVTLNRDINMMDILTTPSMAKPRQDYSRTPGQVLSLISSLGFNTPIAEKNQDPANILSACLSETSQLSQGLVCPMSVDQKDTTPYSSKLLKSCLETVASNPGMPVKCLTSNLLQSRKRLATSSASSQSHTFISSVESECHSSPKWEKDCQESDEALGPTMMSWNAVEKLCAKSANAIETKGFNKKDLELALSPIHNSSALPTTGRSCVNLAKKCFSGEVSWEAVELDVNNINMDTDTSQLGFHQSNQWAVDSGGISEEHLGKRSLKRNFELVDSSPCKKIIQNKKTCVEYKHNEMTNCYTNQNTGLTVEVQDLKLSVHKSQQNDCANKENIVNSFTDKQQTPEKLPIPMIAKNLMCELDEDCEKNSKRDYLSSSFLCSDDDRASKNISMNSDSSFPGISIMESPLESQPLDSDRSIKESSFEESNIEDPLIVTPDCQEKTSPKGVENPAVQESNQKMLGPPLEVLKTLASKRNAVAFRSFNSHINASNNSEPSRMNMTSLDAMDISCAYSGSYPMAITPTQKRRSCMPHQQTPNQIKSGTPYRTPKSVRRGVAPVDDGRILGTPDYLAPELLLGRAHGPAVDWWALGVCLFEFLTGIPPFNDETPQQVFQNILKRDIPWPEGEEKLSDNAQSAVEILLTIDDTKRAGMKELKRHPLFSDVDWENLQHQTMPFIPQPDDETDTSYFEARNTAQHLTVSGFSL
The experiment in a line: Selectivity interaction (ActivX KiNativ screen (kinase selectivity in THP-1 cell lysates)) EUB0000639a MASTL. The class given is subcellular. To be noted: lysate, at 1 µM.

Assay [5] has as its target T3, Tyrosine-protein kinase JAK3 (Homo sapiens) (UniProt P52333).
T3 sequence (whole entry): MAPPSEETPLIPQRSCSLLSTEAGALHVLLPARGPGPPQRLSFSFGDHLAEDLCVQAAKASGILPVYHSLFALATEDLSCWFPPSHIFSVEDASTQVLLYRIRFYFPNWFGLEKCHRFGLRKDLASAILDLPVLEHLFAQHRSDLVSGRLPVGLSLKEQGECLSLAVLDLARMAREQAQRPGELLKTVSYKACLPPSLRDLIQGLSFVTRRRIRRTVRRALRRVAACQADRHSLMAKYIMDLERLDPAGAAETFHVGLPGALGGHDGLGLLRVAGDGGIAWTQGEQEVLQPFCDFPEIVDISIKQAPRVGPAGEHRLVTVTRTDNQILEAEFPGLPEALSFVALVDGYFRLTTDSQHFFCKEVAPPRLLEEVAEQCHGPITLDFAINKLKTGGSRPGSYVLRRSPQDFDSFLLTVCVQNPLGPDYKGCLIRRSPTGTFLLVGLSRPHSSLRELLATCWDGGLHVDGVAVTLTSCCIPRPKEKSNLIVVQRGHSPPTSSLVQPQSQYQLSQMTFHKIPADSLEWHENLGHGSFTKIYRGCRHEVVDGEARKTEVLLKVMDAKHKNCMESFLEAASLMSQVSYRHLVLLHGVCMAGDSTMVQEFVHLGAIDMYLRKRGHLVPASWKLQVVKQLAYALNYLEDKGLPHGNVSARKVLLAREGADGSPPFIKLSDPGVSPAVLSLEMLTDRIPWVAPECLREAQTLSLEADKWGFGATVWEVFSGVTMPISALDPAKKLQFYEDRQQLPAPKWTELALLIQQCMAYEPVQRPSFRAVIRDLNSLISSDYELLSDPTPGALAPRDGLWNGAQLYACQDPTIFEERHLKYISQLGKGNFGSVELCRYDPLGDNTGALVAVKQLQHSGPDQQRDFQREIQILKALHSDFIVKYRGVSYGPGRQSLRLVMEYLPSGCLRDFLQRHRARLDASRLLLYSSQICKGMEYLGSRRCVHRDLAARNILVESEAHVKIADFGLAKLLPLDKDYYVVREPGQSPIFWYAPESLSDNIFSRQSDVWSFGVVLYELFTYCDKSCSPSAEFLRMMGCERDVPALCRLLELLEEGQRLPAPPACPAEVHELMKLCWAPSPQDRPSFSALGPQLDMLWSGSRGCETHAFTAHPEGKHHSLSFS
In words: Selectivity interaction (ProQinase) EUB0000171b JAK3.

The target in assay [6] is Tyrosine-protein kinase ABL1 (Homo sapiens, UniProt P00519). In words: Selectivity interaction (KinomeScan (DiscoverX)) EUB0001868a ABL1. To be noted: at 1 µM.
The target of assay [7] is Cyclin-dependent kinase 4 (Homo sapiens, UniProt P11802). The experiment in a line: Selectivity interaction (Kinase panel (33PanQinase(R) Activity Assay)) EUB0000877a CDK4.
Sequence of Cyclin-dependent kinase 4 (P11802 whole entry): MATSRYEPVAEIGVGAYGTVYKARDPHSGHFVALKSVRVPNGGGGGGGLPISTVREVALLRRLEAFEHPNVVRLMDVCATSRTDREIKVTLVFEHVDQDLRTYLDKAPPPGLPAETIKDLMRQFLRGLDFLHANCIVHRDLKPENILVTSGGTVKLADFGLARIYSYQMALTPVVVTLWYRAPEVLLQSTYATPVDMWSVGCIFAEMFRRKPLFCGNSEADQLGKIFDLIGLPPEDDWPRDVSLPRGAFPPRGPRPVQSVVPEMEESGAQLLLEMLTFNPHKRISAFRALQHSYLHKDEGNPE

Sequence of Tyrosine-protein kinase Fyn (Homo sapiens) (P06241 2-537 limits assumed): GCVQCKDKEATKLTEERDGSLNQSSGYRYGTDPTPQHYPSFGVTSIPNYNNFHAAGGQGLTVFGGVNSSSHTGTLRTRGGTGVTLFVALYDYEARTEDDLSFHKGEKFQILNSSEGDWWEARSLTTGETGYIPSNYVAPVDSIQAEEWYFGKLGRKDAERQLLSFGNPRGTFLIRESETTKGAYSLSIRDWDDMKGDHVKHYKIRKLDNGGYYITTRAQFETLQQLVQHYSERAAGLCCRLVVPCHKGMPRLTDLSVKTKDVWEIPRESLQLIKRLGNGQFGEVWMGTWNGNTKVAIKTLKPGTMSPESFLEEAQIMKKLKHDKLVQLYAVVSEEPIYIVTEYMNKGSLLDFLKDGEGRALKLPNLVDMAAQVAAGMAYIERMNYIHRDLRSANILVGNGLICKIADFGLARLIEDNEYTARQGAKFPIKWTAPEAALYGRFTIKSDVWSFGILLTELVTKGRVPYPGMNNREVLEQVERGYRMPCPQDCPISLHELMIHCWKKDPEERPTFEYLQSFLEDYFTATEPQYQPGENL
Sequence of Tyrosine-protein kinase ABL1 (P00519 whole entry): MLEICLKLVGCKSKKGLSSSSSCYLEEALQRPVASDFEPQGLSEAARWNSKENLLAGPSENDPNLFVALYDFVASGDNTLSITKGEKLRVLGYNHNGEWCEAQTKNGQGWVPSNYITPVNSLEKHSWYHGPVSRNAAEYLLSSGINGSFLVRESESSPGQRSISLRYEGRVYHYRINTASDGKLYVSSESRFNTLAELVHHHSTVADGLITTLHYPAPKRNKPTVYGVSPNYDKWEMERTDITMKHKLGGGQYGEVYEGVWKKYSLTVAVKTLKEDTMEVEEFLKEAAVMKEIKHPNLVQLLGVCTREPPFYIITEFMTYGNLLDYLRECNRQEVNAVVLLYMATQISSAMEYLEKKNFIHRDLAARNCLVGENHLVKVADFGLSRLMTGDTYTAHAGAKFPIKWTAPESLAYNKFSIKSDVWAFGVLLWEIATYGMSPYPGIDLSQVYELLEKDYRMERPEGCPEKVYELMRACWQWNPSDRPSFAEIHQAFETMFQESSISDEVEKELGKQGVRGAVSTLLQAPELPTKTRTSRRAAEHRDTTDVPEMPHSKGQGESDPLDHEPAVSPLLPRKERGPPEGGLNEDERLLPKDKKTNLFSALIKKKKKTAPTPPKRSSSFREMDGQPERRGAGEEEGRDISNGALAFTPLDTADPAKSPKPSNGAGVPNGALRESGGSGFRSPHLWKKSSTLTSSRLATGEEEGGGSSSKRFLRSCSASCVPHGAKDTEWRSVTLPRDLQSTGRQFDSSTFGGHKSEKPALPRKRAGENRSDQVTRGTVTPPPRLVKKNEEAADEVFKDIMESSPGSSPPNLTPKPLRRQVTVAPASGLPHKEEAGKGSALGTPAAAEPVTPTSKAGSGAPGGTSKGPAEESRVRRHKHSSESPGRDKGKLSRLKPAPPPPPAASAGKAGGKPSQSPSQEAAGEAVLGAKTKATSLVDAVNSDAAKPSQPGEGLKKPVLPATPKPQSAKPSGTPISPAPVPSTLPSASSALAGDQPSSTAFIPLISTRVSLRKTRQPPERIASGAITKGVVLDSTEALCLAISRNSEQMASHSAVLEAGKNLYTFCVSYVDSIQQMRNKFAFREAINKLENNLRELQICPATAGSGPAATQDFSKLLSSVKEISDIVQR
Sequence of MAP kinase-activated protein kinase 2 (P49137 whole entry, looked up): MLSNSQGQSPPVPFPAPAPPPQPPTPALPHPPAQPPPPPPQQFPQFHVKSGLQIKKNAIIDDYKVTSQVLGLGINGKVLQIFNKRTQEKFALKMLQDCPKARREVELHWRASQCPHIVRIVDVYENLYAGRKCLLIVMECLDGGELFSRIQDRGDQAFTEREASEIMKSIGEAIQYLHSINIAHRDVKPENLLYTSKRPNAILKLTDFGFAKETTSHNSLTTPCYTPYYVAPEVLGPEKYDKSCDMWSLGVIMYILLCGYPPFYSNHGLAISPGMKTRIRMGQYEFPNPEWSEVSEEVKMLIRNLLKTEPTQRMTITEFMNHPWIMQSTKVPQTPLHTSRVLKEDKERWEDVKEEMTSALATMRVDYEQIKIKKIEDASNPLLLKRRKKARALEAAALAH

Compound `COCC(=O)NC/C=C/c1ccc2ncnc(Nc3ccc(Oc4ccc(C)nc4)c(C)c3)c2c1` [CP-724714] returned a % of control in assay [1] of 100%.

Consider `Cc1cc([C@@H](C)Nc2ccccc2C(=O)O)c2nc(N3CCOCC3)cc(=O)n2c1` [AZD-6482], for which, in assay [2], the % of control was 98%.

For `CC[C@@H]1[C@H](F)C(=O)N[C@@H]1COc1nccc2cc(C(N)=O)c(OC)cc12` [ZIMLOVISERTIB], the % of inhibition in assay [3] (at 0.01 µM) was -12.7%; in assay [3] (at 0.04 µM), -16.1%; in assay [3] (at 0.2 µM), -5.4%; in assay [3] (at 1 µM), -3.3%; in assay [3] (at 5 µM) it was -18.6%; in assay [4], 35.1%.

`C=CC(=O)Nc1cccc(C(=O)Nc2ccc(Nc3cc(-c4[nH]c(SC)nc4C)ccn3)cc2)c1`: the % of control in assay [5] (at 1 µM) was determined as 79%; in assay [5] (at 5 µM), 54%.

`Cc1cc(-c2ccnc(Nc3cnn(C)c3)n2)ccc1CNC(=O)N1CC(OC(C)C)C1` came in with a % of control in assay [6] of 21%.

For the compound `CCC(=O)N1CC[C@H](Nc2ncnc3c2CN(c2cnc(OC)c(C(F)(F)F)c2)CC3)C1` [LENIOLISIB], the IC50 (as a rule, the concentration at which inhibition is half-maximal) in assay [7] was more than 10 µM.
